{"source": "paper PMC8851638", "about": "(ACS Omega, 2022)", "key": {"[1]": {"test_system": "H9C2: rat heart/myocardium", "test": "In vitro cytotoxicity on normal cell line", "type": "cell-based"}, "[2]": {"test": "In vitro cytotoxicity on normal cell line", "type": "cell-based, rat", "conditions": "rat, H9C2 heart/myocardium cells"}, "C. albicans200 [3]": {"test_system": "C. albicans200", "test": "Checkerboard combination assay with Ketoconazole", "type": "cell-based, Candida albicans"}, "[4]": {"test_system": "C. albicans100 (MDR00100)", "test": "MIC and MFC by broth microdilution", "type": "cell-based, Candida albicans"}, "S. aureus (MDR00231) [5]": {"test_system": "S. aureus (MDR00231)", "test": "Agar well-diffusion antimicrobial sensitivity assay", "type": "cell-based, Staphylococcus aureus", "conditions": "Staphylococcus aureus, read-out: Inhibition Zone (IZ)"}, "A. baumannii [6]": {"test_system": "A. baumannii", "test": "Single-step resistance selection", "type": "cell-based", "conditions": "4 × MIC, 48 h"}, "E. coli DNA gyrase": {"molecular_target": "E. coli DNA gyrase (Escherichia coli, UniProt P0AES4+P0AES6)", "sequence (P0AES4 whole entry, one chain of several)": "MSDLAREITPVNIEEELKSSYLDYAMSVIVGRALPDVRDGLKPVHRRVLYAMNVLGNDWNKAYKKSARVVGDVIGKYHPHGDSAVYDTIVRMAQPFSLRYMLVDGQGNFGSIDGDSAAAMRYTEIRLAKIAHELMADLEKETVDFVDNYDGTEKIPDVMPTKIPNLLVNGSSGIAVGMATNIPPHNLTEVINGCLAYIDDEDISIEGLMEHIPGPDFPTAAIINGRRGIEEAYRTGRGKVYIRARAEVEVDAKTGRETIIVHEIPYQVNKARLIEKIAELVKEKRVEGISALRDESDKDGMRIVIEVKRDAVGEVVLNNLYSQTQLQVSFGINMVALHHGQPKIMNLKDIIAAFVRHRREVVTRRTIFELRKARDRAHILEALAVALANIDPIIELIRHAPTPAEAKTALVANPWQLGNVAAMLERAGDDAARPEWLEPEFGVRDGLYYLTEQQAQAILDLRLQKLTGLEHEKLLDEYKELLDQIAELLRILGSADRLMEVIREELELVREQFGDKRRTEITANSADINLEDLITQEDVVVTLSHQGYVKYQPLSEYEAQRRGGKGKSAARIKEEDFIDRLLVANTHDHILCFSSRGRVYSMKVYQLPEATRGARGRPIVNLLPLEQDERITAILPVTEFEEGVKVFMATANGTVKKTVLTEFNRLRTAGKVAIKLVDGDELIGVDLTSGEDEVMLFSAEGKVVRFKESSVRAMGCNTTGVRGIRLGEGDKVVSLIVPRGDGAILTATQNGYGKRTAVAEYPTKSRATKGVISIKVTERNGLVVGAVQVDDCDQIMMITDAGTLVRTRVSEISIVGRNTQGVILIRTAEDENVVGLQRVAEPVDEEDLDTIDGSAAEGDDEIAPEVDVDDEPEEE", "test": "DNA gyrase inhibition", "type": "biochemical"}, "[7]": {"test_system": "clinical pathogenic isolates", "test": "Single-step resistance selection, whole panel", "type": "cell-based", "conditions": "4 × MIC"}, "K. pneumoniae": {"test_system": "K. pneumoniae", "test": "Single-step resistance selection", "type": "cell-based", "conditions": "4 × MIC, 48 h"}, "B. subtilis (MDR00423)": {"test_system": "B. subtilis (MDR00423)", "test": "MIC and MBC by broth microdilution", "type": "cell-based", "conditions": "B. subtilis; ratio in parentheses"}, "[8]": {"test_system": "S. epidermidis (MDR00223)", "test": "Agar well-diffusion antimicrobial sensitivity assay", "type": "cell-based, Staphylococcus epidermidis", "conditions": "Staphylococcus epidermidis, read-out: Inhibition Zone (IZ)"}, "C. albicans100 [9]": {"test_system": "C. albicans100", "test": "Single-step resistance selection", "type": "cell-based, Candida albicans", "conditions": "4 × MIC, 48 h"}, "[10]": {"molecular_target": "T1, dihydrofolate reductase (DHFR) (Homo sapiens, UniProt P00374)", "T1 sequence (P00374 1-187)": "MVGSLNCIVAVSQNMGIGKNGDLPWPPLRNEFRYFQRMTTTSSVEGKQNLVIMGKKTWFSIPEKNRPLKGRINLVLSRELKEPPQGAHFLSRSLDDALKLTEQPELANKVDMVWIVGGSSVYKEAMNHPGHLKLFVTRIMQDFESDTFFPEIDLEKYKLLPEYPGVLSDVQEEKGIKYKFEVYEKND", "test": "DHFR inhibition", "type": "biochemical"}, "E. coli": {"test_system": "E. coli", "test": "Single-step resistance selection", "type": "cell-based", "conditions": "4 × MIC, 48 h"}, "E. coli (MDR00501) [11]": {"test_system": "E. coli (MDR00501)", "test": "Agar well-diffusion antimicrobial sensitivity assay", "type": "cell-based", "conditions": "Escherichia coli, read-out: Inhibition Zone (IZ)"}, "[12]": {"test_system": "C. albicans200 (MDR00200)", "test": "Agar well-diffusion antimicrobial sensitivity assay", "type": "cell-based, Candida albicans", "conditions": "Candida albicans, read-out: Inhibition Zone (IZ)"}, "RBCs": {"test_system": "RBCs", "test": "Hemolytic assay", "type": "cell-based", "conditions": "human RBCs; compounds 1.0 mg/mL; Triton X-100 0.1% v/v; 37 °C, 35 min"}, "[13]": {"test_system": "C. albicans200 (MDR00200)", "test": "MIC and MFC by broth microdilution", "type": "cell-based, Candida albicans"}, "C. albicans100 [14]": {"test_system": "C. albicans100", "test": "Checkerboard combination assay with Ketoconazole", "type": "cell-based, Candida albicans"}, "[15]": {"test_system": "S. epidermidis (MDR00223)", "test": "MIC and MBC by broth microdilution", "type": "cell-based, Staphylococcus epidermidis"}, "[16]": {"test_system": "Vero: green monkey kidney", "test": "In vitro cytotoxicity on normal cell line", "type": "cell-based"}, "[17]": {"test": "In vitro cytotoxicity on normal cell line", "type": "cell-based, green monkey", "conditions": "green monkey, Vero kidney cells"}, "S. aureus biofilm": {"test_system": "S. aureus biofilm", "test": "Staphylococcus biofilm mass reduction", "type": "cell-based", "conditions": "at their MIC"}, "E. coli (MDR00501) [18]": {"test_system": "E. coli (MDR00501)", "test": "MIC and MBC by broth microdilution", "type": "cell-based"}, "S. aureus (MDR00231) [19]": {"test_system": "S. aureus (MDR00231)", "test": "MIC and MBC by broth microdilution", "type": "cell-based, Staphylococcus aureus"}, "S. aureus": {"test_system": "S. aureus", "test": "Single-step resistance selection", "type": "cell-based, Staphylococcus aureus", "conditions": "4 × MIC, 48 h"}, "K. pneumoniae (MDR00244)": {"test_system": "K. pneumoniae (MDR00244)", "test": "MIC and MBC by broth microdilution", "type": "cell-based", "conditions": "ratio in parentheses"}, "S. epidermidis": {"test_system": "S. epidermidis", "test": "Single-step resistance selection", "type": "cell-based, Staphylococcus epidermidis", "conditions": "4 × MIC, 48 h"}, "B. subtilis": {"test_system": "B. subtilis", "test": "Single-step resistance selection", "type": "cell-based", "conditions": "4 × MIC, 48 h"}, "[20]": {"test_system": "C. albicans100 (MDR00100)", "test": "Agar well-diffusion antimicrobial sensitivity assay", "type": "cell-based, Candida albicans", "conditions": "Candida albicans, read-out: Inhibition Zone (IZ)"}, "[21]": {"test_system": "BNL: mouse normal liver cells", "test": "In vitro cytotoxicity on normal cell line", "type": "cell-based"}, "[22]": {"test": "In vitro cytotoxicity on normal cell line", "type": "cell-based, mouse", "conditions": "mouse, BNL normal liver cells"}, "A. baumannii (MDR00521)": {"test_system": "A. baumannii (MDR00521)", "test": "MIC and MBC by broth microdilution", "type": "cell-based", "conditions": "ratio in parentheses"}, "C. albicans200 [23]": {"test_system": "C. albicans200", "test": "Single-step resistance selection", "type": "cell-based, Candida albicans", "conditions": "4 × MIC, 48 h"}, "S. epidermidis biofilm": {"test_system": "S. epidermidis biofilm", "test": "Staphylococcus biofilm mass reduction", "type": "cell-based", "conditions": "at their MIC"}, "A. baumannii [24]": {"test_system": "A. baumannii", "test": "Checkerboard combination assay with Ciprofloxacin", "type": "cell-based"}, "Gram-negative bacteria": {"test_system": "Gram-negative bacteria", "test": "MIC broth microdilution, Gram-negative panel", "type": "cell-based", "conditions": "Gram-negative bacteria used in this study"}, "[25]": {"conditions": "Candida albicans, read-out: MIC (mean ± SEM)"}}, "note": "Values joined by “and” are separate entries in the source; they are usually repeats but may differ in a detail not shown here. Identical values can stand only once."}
{"smiles": "Cc1c(NN=C(C#N)C2=NC(=O)CS2)c(=O)n(-c2ccccc2)n1C", "note": "[Compound 13, N-(1,5-Dimethyl-3-oxo-2-phenyl-2,3-dihydro-1H-pyrazol-4-yl)-4-oxo-4,5-dihydrothiazole-2-carbohydrazonoyl cyanide]", "values": [{"measurement": "Selectivity index against DHFR", "setting": "[1]; IC50 of H9C2 / IC50 of DHFR", "value": 23.06}, {"measurement": "Selectivity index against DNA gyrase", "setting": "[1]; IC50 of H9C2 / IC50 of DNA gyrase", "value": 1.94}, {"measurement": "IC50 at 72 h", "setting": "[2]", "value": "61.6 ± 1.64", "unit": "µM"}, {"measurement": "combination effect", "setting": "C. albicans200 [3]", "value": "S (S: synergism)"}, {"measurement": "fractional inhibitory concentration index (FICI)", "setting": "C. albicans200 [3]", "value": 0.5}, {"measurement": "MFC/MIC", "setting": "[4]; C. albicans100, ratio in parentheses", "value": 2}, {"measurement": "MIC", "setting": "[4]; [25]", "value": "0.99 ± 0.2", "unit": "µg/mL"}, {"measurement": "zone of inhibition at 100000 µg/mL", "setting": "S. aureus (MDR00231) [5]", "value": "27 ± 0.82", "unit": "mm"}, {"measurement": "Single-step resistance frequency (mutation frequency)", "setting": "A. baumannii [6]", "value": "2.71 × 10^–7"}, {"measurement": "IC50", "setting": "E. coli DNA gyrase", "value": "31.64 ± 0.17", "unit": "µM"}, {"measurement": "mutation frequency, range over panel", "setting": "[7]", "value": "2.71 × 10^–7 to 2.92 × 10^–9"}, {"measurement": "Single-step resistance frequency (mutation frequency)", "setting": "K. pneumoniae", "value": "3.22 × 10^–8"}, {"measurement": "MBC/MIC", "setting": "B. subtilis (MDR00423)", "value": 2}, {"measurement": "zone of inhibition at 100000 µg/mL", "setting": "[8]", "value": "25 ± 0.45", "unit": "mm"}, {"measurement": "Single-step resistance frequency (mutation frequency)", "setting": "C. albicans100 [9]", "value": "2.92 × 10^–9"}, {"measurement": "IC50", "setting": "[10]", "value": "2670 ± 140", "unit": "nM"}, {"measurement": "Single-step resistance frequency (mutation frequency)", "setting": "E. coli", "value": "2.90 × 10^–8"}, {"measurement": "zone of inhibition at 100000 µg/mL", "setting": "E. coli (MDR00501) [11]", "value": "28 ± 0.55", "unit": "mm"}, {"measurement": "zone of inhibition at 100000 µg/mL", "setting": "[12]", "value": "28 ± 0.36", "unit": "mm"}, {"measurement": "%lysis of RBCs", "setting": "RBCs", "value": "15.22% and 15.22 ± 0.43%"}, {"measurement": "MFC/MIC", "setting": "[13]; C. albicans200, ratio in parentheses", "value": 2}, {"measurement": "MIC", "setting": "[13]; [25]", "value": "0.98 ± 0.3", "unit": "µg/mL"}, {"measurement": "combination effect", "setting": "C. albicans100 [14]", "value": "S (S: synergism)"}, {"measurement": "fractional inhibitory concentration index (FICI)", "setting": "C. albicans100 [14]", "value": 0.5}, {"measurement": "MBC/MIC", "setting": "[15]; S. epidermidis, ratio in parentheses", "value": 1}, {"measurement": "MIC", "setting": "[15]; Staphylococcus epidermidis, read-out: MIC (mean ± SEM)", "value": "0.99 ± 0.3", "unit": "µg/mL"}, {"measurement": "Selectivity index against DHFR", "setting": "[16]; IC50 of Vero / IC50 of DHFR", "value": 28.02}, {"measurement": "Selectivity index against DNA gyrase", "setting": "[16]; IC50 of Vero / IC50 of DNA gyrase", "value": 2.36}, {"measurement": "IC50 at 72 h", "setting": "[17]", "value": "74.8 ± 2.12", "unit": "µM"}, {"measurement": "reduction of biofilm formation", "setting": "S. aureus biofilm", "value": 51.2, "unit": "%"}, {"measurement": "MBC/MIC", "setting": "E. coli (MDR00501) [18]; E. coli, ratio in parentheses", "value": 0.5}, {"measurement": "MIC", "setting": "E. coli (MDR00501) [18]; Escherichia coli, read-out: MIC (mean ± SEM)", "value": "0.49 ± 0.2", "unit": "µg/mL"}, {"measurement": "MBC/MIC", "setting": "S. aureus (MDR00231) [19]; S. aureus, ratio in parentheses", "value": 1}, {"measurement": "MIC", "setting": "S. aureus (MDR00231) [19]; Staphylococcus aureus, read-out: MIC (mean ± SEM)", "value": "0.98 ± 0.2", "unit": "µg/mL"}, {"measurement": "Single-step resistance frequency (mutation frequency)", "setting": "S. aureus", "value": "2.73 × 10^–8"}, {"measurement": "MBC/MIC", "setting": "K. pneumoniae (MDR00244)", "value": 2}, {"measurement": "Single-step resistance frequency (mutation frequency)", "setting": "S. epidermidis", "value": "4.15 × 10^–8"}, {"measurement": "Single-step resistance frequency (mutation frequency)", "setting": "B. subtilis", "value": "1.66 × 10^–9"}, {"measurement": "zone of inhibition at 100000 µg/mL", "setting": "[20]", "value": "29 ± 0.25", "unit": "mm"}, {"measurement": "Selectivity index against DHFR", "setting": "[21]; IC50 of BNL / IC50 of DHFR", "value": 29.78}, {"measurement": "Selectivity index against DNA gyrase", "setting": "[21]; IC50 of BNL / IC50 of DNA gyrase", "value": 2.51}, {"measurement": "IC50 at 72 h", "setting": "[22]", "value": "79.5 ± 1.67", "unit": "µM"}, {"measurement": "MBC/MIC", "setting": "A. baumannii (MDR00521)", "value": 0.5}, {"measurement": "Single-step resistance frequency (mutation frequency)", "setting": "C. albicans200 [23]", "value": "3.20 × 10^–8"}, {"measurement": "reduction of biofilm formation", "setting": "S. epidermidis biofilm", "value": 47.8, "unit": "%"}, {"measurement": "combination effect", "setting": "A. baumannii [24]", "value": "S (S: synergism)"}, {"measurement": "fractional inhibitory concentration index (FICI)", "setting": "A. baumannii [24]", "value": 0.5}, {"measurement": "MIC, range over panel", "setting": "Gram-negative bacteria", "value": "0.43 to 0.98", "unit": "µg/mL"}]}
